Results taken from patent US9999624B2, “Combination Alzheimer therapy using anti-N3pGlu Abeta antibodies + a BACE inhibitor” (Eli Lilly and Company, priority 2014, dated 2018).
Counter-ions that a name gives are not always drawn. Like-named read-outs stand apart in the source and are kept apart here. Values belong to the compound of their own block, whether it stands above or below them.

Legend:
human BACE1(1-460):Fc = human BACE1(1-460):Fc (Homo sapiens (Human), UniProt P56817); assay: BACE1 FRET Assay; format: biochemical; conditions: purified recombinant huBACE1:Fc, FRET substrate, pH 4.6; Mean ± SEM
[1] = test system: primary cortical neurons from PDAPP transgenic embryonic mice; assay: PDAPP Primary Neuronal Assay (Abeta ELISA); format: cell-based; conditions: Mus musculus, Primary cortical neuron, 24 h, Mean ± SEM
young female PDAPP mice = assay: In Vivo Inhibition of Beta-Secretase (brain Abeta 1-x reduction); set-up: species or system mouse; conditions: for Abeta 1-x peptide levels reduced in brain cortex / Abeta 1-x peptide levels reduced in brain hippocampus: 3 hours after administration, compared to vehicle-treated mice; for CNS penetration: inferred from brain Abeta lowering after oral dose
Excerpt: Several animal models, including mouse, guinea pig, dog, and monkey, may be used to screen for inhibition of beta-secretase activity in vivo following compound treatment Animals used in this invention can be wild type, transgenic, or gene knockout animals. For example, the PDAPP mouse model, prepared as described in Games et al., Nature 373, 523-527 (1995), and other non-transgenic or gene knockout animals are useful to analyze in vivo inhibition of Abeta and sAPPbeta production in the presence of inhibitory compounds. Generally, 2 to 12 month old PDAPP mice, gene knockout mice or non-transgenic animals are administered compound formulated in vehicles, such as corn oil, cyclodextran, phosphate buffers, […]®, or other suitable vehicles. One to twenty-four hours following the administration of compound, animals are sacrificed, and brains as well as cerebrospinal fluid and plasma are removed for analysis of Abetas, C99, and sAPP fragments. (See May, et al., Journal of Neuroscience, 31, 16507-16516 (2011)). For standard in vivo pharmacology studies, animals are dosed with various concentrations of compound and compared to a vehicle-treated control group dosed at the same time. For some time course studies, brain tissue, plasma, or cerebrospinal fluid is obtained from selected animals, beginning at time 0 to establish a baseline. Compound or appropriate vehicle is administered to other groups and sacrificed at various times after dosing. Brain tissue, plasma, or cerebrospinal fluid is obtained from selected animals and analyzed for the presence of APP cleavage products, including Abeta peptides, sAPPbeta, and other APP fragments, for example, by specific sandwich ELISA assays. At the end of the test period, animals are sacrificed and brain tissues, plasma, or cerebrospinal fluid are analyzed for the presence of Abeta peptides, C99, and sAPPbeta, as appropriate. Brain tissues of APP transgenic animals may also be analyzed for the amount of beta-amyloid plaques following compound treatment. “Abeta 1-x peptide” as used herein refers to the sum of Abeta species that begin with […]-terminus greater than residue 28. This detects the majority of Abeta species and is often called “total Abeta”.

Chain of human BACE1(1-460):Fc (P56817 22-460): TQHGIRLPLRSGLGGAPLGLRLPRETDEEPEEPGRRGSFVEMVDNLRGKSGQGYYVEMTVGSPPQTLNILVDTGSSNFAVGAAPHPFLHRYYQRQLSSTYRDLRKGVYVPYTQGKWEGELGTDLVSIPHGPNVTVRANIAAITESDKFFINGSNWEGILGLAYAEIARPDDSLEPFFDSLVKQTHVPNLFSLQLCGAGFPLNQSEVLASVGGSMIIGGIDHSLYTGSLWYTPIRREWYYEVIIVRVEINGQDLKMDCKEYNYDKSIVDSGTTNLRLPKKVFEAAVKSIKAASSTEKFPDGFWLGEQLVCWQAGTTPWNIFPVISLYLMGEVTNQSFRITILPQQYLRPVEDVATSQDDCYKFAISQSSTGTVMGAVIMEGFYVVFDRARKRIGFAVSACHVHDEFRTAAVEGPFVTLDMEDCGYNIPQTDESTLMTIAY

IC50 (human BACE1(1-460):Fc): 0.739 nM
Structure (SMILES): NC1=N[C@@]2(c3cccc(NC(=O)c4ncc(F)cc4F)c3)CN(c3ncc(F)cn3)C[C@H]2CS1 [Example 7, N-[3-[(4aR,7aS)-2-Amino-6-(5-fluoropyrimidin-2-yl)-4,4a,5,7-tetrahydropyrrolo[3,4-d][1,3]thiazin-7a-yl]phenyl]-3,5-difluoro-pyridine-2-carboxamide hydrochloride]

Structure (SMILES): N#Cc1ccc(C(=O)Nc2ccc(F)c([C@]34CN(c5ncc(F)cn5)C[C@H]3CSC(N)=N4)c2)nc1 [Example 8, N-[3-[(4aR,7aS)-2-Amino-6-(5-fluoropyrimidin-2-yl)-4,4a,5,7-tetrahydropyrrolo[3,4-d][1,3]thiazin-7a-yl]-4-fluoro-phenyl]-5-cyano-pyridine-2-carboxamide hydrochloride]
IC50 ([1]; Abeta 1-40 in conditioned media, read-out: PDAPP Neuron A-beta (1-40) ELISA IC50): 0.137 nM
IC50 ([1]; Abeta 1-42 in conditioned media, read-out: PDAPP Neuron A-beta (1-42) ELISA IC50): 0.0725 nM

CNS penetration (young female PDAPP mice): demonstrate CNS penetration
Structure (SMILES): COc1cnc(C(=O)Nc2ccc(F)c([C@]34CN(c5ncc(F)cn5)C[C@H]3CSC(N)=N4)c2)cn1.Cl [Example 4, N-[3-[(4aR,7aS)-2-Amino-6-(5-fluoropyrimidin-2-yl)-4,4a,5,7-tetrahydropyrrolo[3,4-d][1,3]thiazin-7a-yl]-4-fluoro-phenyl]-5-methoxy-pyrazine-2-carboxamide hydrochloride]
Abeta 1-x peptide levels reduced in brain cortex (young female PDAPP mice; 0.3 mg/kg oral dose): approximately 28%
Abeta 1-x peptide levels reduced in brain hippocampus (young female PDAPP mice; 0.3 mg/kg oral dose): approximately 31%
Abeta 1-x peptide levels reduced in brain cortex (young female PDAPP mice; 1 mg/kg oral dose): ~42%
Abeta 1-x peptide levels reduced in brain hippocampus (young female PDAPP mice; 1 mg/kg oral dose): ~39%
Abeta 1-x peptide levels reduced in brain cortex (young female PDAPP mice; 3 mg/kg oral dose): ~64%
Abeta 1-x peptide levels reduced in brain hippocampus (young female PDAPP mice; 3 mg/kg oral dose): ~61%

IC50 (human BACE1(1-460):Fc): 0.61 nM
CNS penetration (young female PDAPP mice): demonstrate CNS penetration
Structure (SMILES): Cl.NC1=N[C@@]2(c3cccc(NC(=O)c4ccc(F)cn4)c3)CN(c3ncc(F)cn3)C[C@H]2CS1 [Example 1, N-{3-[(4aR,7aS)-2-Amino-6-(5-fluoropyrimidin-2-yl)-4a,5,6,7-tetrahydropyrrolo[3,4-d][1,3]thiazin-7a(4H)-yl]phenyl}-5-fluoropyridine-2-carboxamide hydrochloride]
